{
  "source": "paper PMC5161041",
  "about": "(Journal of medicinal chemistry, 2016)",
  "key": {"[1]": {"assay": "Mouse microsomal stability assay", "format": "in vitro ADME", "settings": "mouse liver microsomes"}, "NET": {"molecular_target": "NET (Rattus norvegicus, UniProt Q63380)", "sequence (Q63380 1-617)": "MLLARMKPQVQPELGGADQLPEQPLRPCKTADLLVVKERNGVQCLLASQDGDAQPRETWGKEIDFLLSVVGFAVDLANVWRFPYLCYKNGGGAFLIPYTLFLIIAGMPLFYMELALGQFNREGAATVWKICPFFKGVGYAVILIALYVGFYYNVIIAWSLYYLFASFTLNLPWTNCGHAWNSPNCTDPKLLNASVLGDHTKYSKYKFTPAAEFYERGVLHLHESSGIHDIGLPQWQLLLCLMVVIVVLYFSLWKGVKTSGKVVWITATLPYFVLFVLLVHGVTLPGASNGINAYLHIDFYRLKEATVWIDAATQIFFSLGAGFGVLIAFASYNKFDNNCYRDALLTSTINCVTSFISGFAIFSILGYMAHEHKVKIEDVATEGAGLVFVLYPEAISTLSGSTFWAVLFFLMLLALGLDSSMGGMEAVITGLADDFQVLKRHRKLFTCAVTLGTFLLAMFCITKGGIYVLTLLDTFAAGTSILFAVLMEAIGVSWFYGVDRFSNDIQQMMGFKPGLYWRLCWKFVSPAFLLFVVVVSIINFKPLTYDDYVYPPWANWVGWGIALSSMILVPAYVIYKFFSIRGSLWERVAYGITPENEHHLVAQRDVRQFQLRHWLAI", "assay": "NET binding assay, [3H]nisoxetine, rat frontal cortex membranes"}, "DAT": {"molecular_target": "DAT (Rattus norvegicus, UniProt P23977)", "sequence (P23977 whole entry)": "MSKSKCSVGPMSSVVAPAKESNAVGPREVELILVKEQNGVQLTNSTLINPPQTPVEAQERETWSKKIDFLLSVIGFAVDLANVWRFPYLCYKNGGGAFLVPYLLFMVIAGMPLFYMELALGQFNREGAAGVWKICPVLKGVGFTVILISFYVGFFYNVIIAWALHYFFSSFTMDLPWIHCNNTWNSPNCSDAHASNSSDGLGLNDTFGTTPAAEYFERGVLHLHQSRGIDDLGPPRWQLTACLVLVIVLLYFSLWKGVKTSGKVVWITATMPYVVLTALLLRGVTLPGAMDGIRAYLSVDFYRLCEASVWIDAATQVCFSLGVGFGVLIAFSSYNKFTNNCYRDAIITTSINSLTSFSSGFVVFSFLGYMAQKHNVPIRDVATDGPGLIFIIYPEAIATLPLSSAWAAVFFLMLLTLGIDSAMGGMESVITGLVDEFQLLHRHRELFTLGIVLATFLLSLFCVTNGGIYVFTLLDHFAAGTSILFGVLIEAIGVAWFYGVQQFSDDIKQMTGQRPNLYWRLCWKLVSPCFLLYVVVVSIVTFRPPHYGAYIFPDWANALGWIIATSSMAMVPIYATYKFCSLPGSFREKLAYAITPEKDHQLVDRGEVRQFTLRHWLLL", "assay": "DAT binding assay, [3H]WIN 35,428, rat striatal membranes", "settings": "8c vs 10a, 9c vs 11a"}, "[2]": {"settings": "introductory statement, no reference given; cited from earlier work"}, "[3]": {"molecular_target": "Dopamine D2 receptor Gi1 activation (Homo sapiens, UniProt P14416)", "sequence (P14416 whole entry)": "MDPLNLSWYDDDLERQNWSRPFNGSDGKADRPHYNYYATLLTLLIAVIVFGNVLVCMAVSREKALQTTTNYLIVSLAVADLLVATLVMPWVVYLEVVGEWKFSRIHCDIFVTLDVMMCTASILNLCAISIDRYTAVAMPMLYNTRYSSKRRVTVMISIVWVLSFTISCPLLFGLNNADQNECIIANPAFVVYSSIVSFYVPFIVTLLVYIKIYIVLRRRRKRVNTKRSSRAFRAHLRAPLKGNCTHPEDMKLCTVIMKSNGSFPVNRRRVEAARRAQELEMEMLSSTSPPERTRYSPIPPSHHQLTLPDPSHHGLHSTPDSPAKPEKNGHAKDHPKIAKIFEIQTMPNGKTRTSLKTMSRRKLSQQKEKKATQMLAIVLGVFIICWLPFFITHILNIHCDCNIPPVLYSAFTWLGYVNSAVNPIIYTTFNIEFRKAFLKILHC", "format": "cell-based"}, "mice": {"tested_on": "mice", "assay": "Locomotor activity studies in mice", "settings": "for locomotion: i.p."}},
  "data": [
    {"smiles": "CC(O)CN1CCN(C(=O)CSC(c2ccc(F)cc2)c2ccc(F)cc2)CC1", "note": "(centres unmarked) [Compound 13c, 2-((Bis(4-fluorophenyl)methyl)thio)-1-(4-(2-hydroxypropyl)piperazin-1-yl)ethan-1-one]", "values": [
      {"measurement": "time in which metabolized", "setting": "[1]", "result": "< 30", "unit": "min"}
    ]},
    {"smiles": "[O-][S+](CCN1CCN(Cc2ccc(C(F)(F)F)cc2)CC1)C(c1ccc(F)cc1)c1ccc(F)cc1", "note": "(centres unmarked) [Compound 9g, 1-(2-((Bis(4-fluorophenyl)methyl)sulfinyl)ethyl)-4-(4-(trifluoromethyl)benzyl)piperazine]", "values": [
      {"measurement": "Ki", "setting": "NET", "result": "> 50", "unit": "µM"},
      {"measurement": "time in which metabolized", "setting": "[1]", "result": "< 30", "unit": "min"}
    ]},
    {"smiles": "CC(O)CN1CCN(CCSC(c2ccccc2)c2ccccc2)CC1", "note": "(centres unmarked) [Compound 8c, 1-(4-(2-(Benzhydrylthio)ethyl)piperazin-1-yl)propan-2-ol]", "values": [
      {"measurement": "fold decrease in DAT affinity on removal of the phenyl group", "setting": "DAT", "result": 25, "unit": "fold"}
    ]},
    {"smiles": "NC(=O)C[S+]([O-])C(c1ccccc1)c1ccccc1", "note": "(centres unmarked) [Compound 2, 2-[(diphenylmethyl)sulfinyl]acetamide]", "values": [
      {"measurement": "water solubility", "setting": "[2]", "result": "essentially insoluble in water"}
    ]},
    {"smiles": "O=C(C[S+]([O-])C(c1ccc(F)cc1)c1ccc(F)cc1)N1CCN(Cc2ccc(F)cc2)CC1", "note": "(centres unmarked) [Compound 14e, 2-((Bis(4-fluorophenyl)methyl)sulfinyl)-1-(4-(4-fluorobenzyl)piperazin-1-yl)ethan-1-one]", "values": [
      {"measurement": "time in which metabolized", "setting": "[1]", "result": "< 30", "unit": "min"}
    ]},
    {"smiles": "CC(O)CN1CCN(C(=O)C[S+]([O-])C(c2cccc(Cl)c2)c2cccc(Cl)c2)CC1", "note": "(centres unmarked) [Compound 14g, 2-((Bis(3-chlorophenyl)methyl)sulfinyl)-1-(4-(2-hydroxypropyl)piperazin-1-yl)ethan-1-one]", "values": [
      {"measurement": "Ki", "setting": "NET", "result": "> 50", "unit": "µM"}
    ]},
    {"smiles": "NC(=O)C[S@@+]([O-])C(c1ccccc1)c1ccccc1", "note": "[(R)-2, reference compound]", "values": [
      {"measurement": "IC50", "setting": "[3]", "result": "> 10000", "unit": "nM"},
      {"measurement": "locomotion", "setting": "mice; mice, 10 mg/kg", "result": "very mild increase"},
      {"measurement": "locomotion", "setting": "mice; mice, 30 mg/kg", "result": "significant dose-dependent increase in locomotion"}
    ]},
    {"smiles": "CC(O)CN1CCN(CC[S+]([O-])C(c2cccc(Cl)c2)c2cccc(Cl)c2)CC1", "note": "(centres unmarked) [Compound 9i, 1-(4-(2-((Bis(3-chlorophenyl)methyl)sulfinyl)ethyl)piperazin-1-yl)propan-2-ol]", "values": [
      {"measurement": "Ki", "setting": "NET", "result": "> 50", "unit": "µM"}
    ]},
    {"smiles": "CC(O)CN1CCN(CC[S+]([O-])C(c2ccccc2)c2ccccc2)CC1", "note": "(centres unmarked) [Compound 9c, 1-(4-(2-(Benzhydrylsulfinyl)ethyl)piperazin-1-yl)propan-2-ol]", "values": [
      {"measurement": "fold decrease in DAT affinity on removal of the phenyl group", "setting": "DAT", "result": 187, "unit": "fold"}
    ]},
    {"smiles": "CC(O)CN1CCN(C(=O)CSC(c2cccc(Cl)c2)c2cccc(Cl)c2)CC1", "note": "(centres unmarked) [Compound 13g, 2-((Bis(3-chlorophenyl)methyl)thio)-1-(4-(2-hydroxypropyl)piperazin-1-yl)ethan-1-one]", "values": [
      {"measurement": "Ki", "setting": "NET", "result": "> 50", "unit": "µM"}
    ]},
    {"smiles": "Fc1ccc(C(SCCNCCCc2ccccc2)c2ccc(F)cc2)cc1", "note": "[Compound 4, N-(2-((bis(4-fluorophenyl)methyl)thio)ethyl)-3-phenylpropan-1-amine]", "values": [
      {"measurement": "IC50", "setting": "[3]", "result": "> 10000", "unit": "nM"}
    ]},
    {"smiles": "[O-][S+](CCN1CCN(Cc2ccc(Cl)cc2)CC1)C(c1ccc(F)cc1)c1ccc(F)cc1", "note": "(centres unmarked) [Compound 9h, 1-(2-((Bis(4-fluorophenyl)methyl)sulfinyl)ethyl)-4-(4-chlorobenzyl)piperazine]", "values": [
      {"measurement": "Ki", "setting": "NET", "result": "> 50", "unit": "µM"},
      {"measurement": "time in which metabolized", "setting": "[1]", "result": "< 30", "unit": "min"}
    ]},
    {"smiles": "O=C(C[S+]([O-])C(c1ccc(F)cc1)c1ccc(F)cc1)N1CCN(CCCc2ccccc2)CC1", "note": "(centres unmarked) [Compound 14b, 2-((Bis(4-fluorophenyl)methyl)sulfinyl)-1-(4-(3-phenylpropyl)piperazin-1-yl)ethan-1-one]", "values": [
      {"measurement": "time in which metabolized", "setting": "[1]", "result": "< 30", "unit": "min"}
    ]},
    {"smiles": "CCc1cc(Cl)c(OC)c(C(=O)NC[C@@H]2CCCN2CC)c1O", "note": "[eticlopride]", "values": [
      {"measurement": "IC50", "setting": "[3]", "result": "2.1 ± 0.8", "unit": "nM"}
    ]},
    {"smiles": "CCCCN1C2CCC1CC(OC(c1ccc(F)cc1)c1ccc(F)cc1)C2", "note": "(centres unmarked) [Compound 3, 3-(bis(4-fluorophenyl)methoxy)-8-butyl-8-azabicyclo[3.2.1]octane]", "values": [
      {"measurement": "IC50", "setting": "[3]", "result": "2000 ± 730", "unit": "nM"}
    ]},
    {"smiles": "[O-][S+](CCN1CCN(CC(O)Cc2ccccc2)CC1)C(c1ccccc1)c1ccccc1", "note": "(centres unmarked) [Compound 11a, 1-(4-(2-(Benzhydrylsulfinyl)ethyl)piperazin-1-yl)-3-phenylpropan-2-ol]", "values": [
      {"measurement": "time in which metabolized", "setting": "[1]", "result": "< 30", "unit": "min"}
    ]},
    {"smiles": "[O-][S+](CCN1CCN(CC(O)Cc2ccccc2)CC1)C(c1ccc(F)cc1)c1ccc(F)cc1", "note": "(centres unmarked) [Compound 11b, 1-(4-(2-((Bis(4-fluorophenyl)methyl)sulfinyl)ethyl)piperazin-1-yl)-3-phenylpropan-2-ol]", "values": [
      {"measurement": "locomotor stimulation compared to cocaine", "setting": "mice; mice", "result": "only moderate locomotor stimulation in mice and was substantially less efficacious than cocaine"},
      {"measurement": "locomotion", "setting": "mice; mice, 30 mg/kg", "result": "significant dose-dependent increase in locomotion"},
      {"measurement": "locomotor stimulation compared to cocaine", "setting": "mice; mice, listed as 11d", "result": "far less efficacious than cocaine"}
    ]},
    {"smiles": "COC(=O)[C@H]1[C@@H](OC(=O)c2ccccc2)C[C@@H]2CC[C@H]1N2C", "note": "[cocaine, reference compound]", "values": [
      {"measurement": "locomotion", "setting": "mice; mice, 3, 10 mg/kg", "result": "robust dose-dependent increase in locomotion"}
    ]},
    {"smiles": "[O-][S+](CCN1CCN(Cc2ccc(F)cc2)CC1)C(c1ccc(F)cc1)c1ccc(F)cc1", "note": "(centres unmarked) [Compound 9f, 1-(2-((Bis(4-fluorophenyl)methyl)sulfinyl)ethyl)-4-(4-fluorobenzyl)piperazine]", "values": [
      {"measurement": "Ki", "setting": "NET", "result": "> 50", "unit": "µM"},
      {"measurement": "time in which metabolized", "setting": "[1]", "result": "< 30", "unit": "min"}
    ]}
  ]
}
